# Test results as given in PubChem BioAssay AID1996.
# Conditions: buffer; pH 7.4; 200.0 µM
row,SMILES,solubility kinetic
1,O=S(=O)(NCC(O)c1ccccc1)c1cc(Cl)sc1Cl (centres undefined),49.7 µg/mL
2,CCCN1C2CCCC1CC(NC(=O)c1cccc([N+](=O)[O-])c1)C2 (centres undefined),> 49.7 µg/mL
3,O=C(COc1ccccc1)Nc1ccncc1,> 34.2 µg/mL
4,COc1ccc(NC(=O)NCCN2CCCCC2)cc1,33.9 µg/mL
5,CC(C)CCN(CCC(C)C)C(=O)Cc1c(O)c2ccccc2[nH]c1=O,2.7 µg/mL
6,Cc1ccc(C(=O)COC(=O)c2cccc([N+](=O)[O-])c2)s1,7.1 µg/mL
7,CC(C)c1ccc(C(CC(=O)O)N2Cc3ccccc3C2=O)cc1 (centres undefined),> 48.5 µg/mL
8,O=C(Nc1cccc(NC(=O)c2ccccc2[N+](=O)[O-])c1)c1ccccc1Cl,1.3 µg/mL
9,CCCOC(=O)c1ccc(NC(=O)c2ccccc2[N+](=O)[O-])cc1,11 µg/mL
10,CCOC(=O)c1ccc(NC(=O)c2cc(=O)[nH]c3ccccc23)cc1,< 0.4 µg/mL
11,O=C(NC1CCCCC1)c1cc(C2CC2)on1,> 35.1 µg/mL
12,Cc1ccc2c(CC(=O)NNC(=O)c3ccncc3)coc2c1,> 46.4 µg/mL
13,COc1ccc(CNc2nccs2)cc1,19.5 µg/mL
14,Cc1ccc(NC(=O)CCOc2ccccc2)cc1,11.7 µg/mL
15,O=C1NC(=O)C(Cc2cccc(Oc3ccccc3)c2)S1 (centres undefined),> 44.9 µg/mL
16,N#Cc1sc(C(N)=O)c(-c2ccccc2)c1-c1ccccc1,< 0.3 µg/mL
17,CN1C(=O)C(=Cc2coc3ccccc3c2=O)C(=O)N(C)C1=O,> 46.8 µg/mL
18,CC(=O)c1cccc(NC(=O)C(C)OC(=O)C2CCC2)c1 (centres undefined),> 43.4 µg/mL
19,Cc1ccc(S(=O)(=O)N(C)c2ccc3ccccc3c2)cc1,1.6 µg/mL
20,CCCCc1ccc(NC(=S)N2CCCC2)cc1,9.2 µg/mL

row,SMILES,solubility kinetic
1,CC(NC(=O)c1c(O)c2ccccc2[nH]c1=O)c1ccccc1 (centres undefined),< 0.3 µg/mL
2,CCC(=O)N(Cc1cc(=O)[nH]c2ccccc12)c1ccccc1C,36.3 µg/mL
3,O=C(CN1C(=O)c2ccccc2C1=O)Nc1ccc(Cl)cn1,4.6 µg/mL
4,O=C(/C=C/c1ccccc1)Nc1nc(-c2ccncc2)cs1,0.9 µg/mL
5,CCOC(=O)c1c(NC(=O)COC(=O)c2cnccn2)sc(C)c1C,16.8 µg/mL
6,Cn1nccc1NC(=O)Nc1ccc(Cl)cc1,> 37.6 µg/mL
7,CN(Cc1ccccc1)C(=O)COC(=O)Cc1ccc(Cl)cc1,46.3 µg/mL
8,C=C(C)c1cccc(C(C)(C)NC(=O)NCc2cccnc2)c1,> 46.4 µg/mL
9,COc1ccccc1CNC(=O)CN(C)CC(=O)Nc1ccccc1Br,> 63 µg/mL
10,C#CCOc1ccc(/C=C2/C(=O)ON=C2C)cc1Cl,32.9 µg/mL
11,C=CCN(CC(=O)NC1CC1)S(=O)(=O)c1cccc(C(F)(F)F)c1,> 54.4 µg/mL
12,NC(=O)CC(NSc1ccccc1[N+](=O)[O-])C(=O)O (centres undefined),36.9 µg/mL
13,Cc1ccc(CONC(=O)c2ccc(OC(F)F)cc2)cc1,9.5 µg/mL
14,CC(C)CC(=O)C1=C(O)C(=O)N(Cc2ccccc2)C1c1ccccc1 (centres undefined),47.3 µg/mL
15,CCOC(=O)C1(C(F)(F)F)N=C(c2ccccc2F)OC(N(C)C)=N1 (centres undefined),42.2 µg/mL
16,COc1cccc(C(=O)N(Cc2cccs2)C2CCS(=O)(=O)C2)c1 (centres undefined),> 54.8 µg/mL
17,Cn1c(-c2ccccc2[N+](=O)[O-])[n+](C)c2ccccc21.[Cl-],42.9 µg/mL
18,CC(C)c1ccc(S(=O)(=O)NC2CCS(=O)(=O)C2)cc1 (centres undefined),> 47.6 µg/mL
19,OCCCNC(=S)Nc1ccc2nccnc2c1,> 39.3 µg/mL
20,CCNc1nc(SC(C)C(=O)OC)nc(N(C)C)n1 (centres undefined),30 µg/mL

row,SMILES,solubility kinetic
1,COc1ccc(C(C)NS(=O)(=O)Cc2ccccc2)cc1 (centres undefined),43 µg/mL
2,O=C(c1ccc(C(F)(F)F)cc1)C1CCCN(C(=O)c2cnccn2)C1 (centres undefined),45.6 µg/mL
3,O=C(CC1OC(=O)c2ccccc21)Nc1cc(Cl)ccc1N1CCOCC1 (centres undefined),5.8 µg/mL
4,CN(C)c1cc(-c2ccc(Br)cc2)oc(=O)c1Cl,1.1 µg/mL
5,Cc1[nH]c2ccc(C(=O)NCCN3CCCCCC3)cc2c1C,> 47 µg/mL
6,O=C(Cc1ccccc1[N+](=O)[O-])NC1CC2CCC1C2 (centres undefined),> 41.1 µg/mL
7,O=C(O)CCN1CCc2ccccc2C1c1ccncc1 (centres undefined),> 42.4 µg/mL
8,COc1ccc(C(=O)/C=C/Nc2cc(C)ccn2)cc1,5.8 µg/mL
9,O=C(COC(=O)c1ccncc1)Nc1ccc2c(c1)OCO2,> 45 µg/mL
10,Cc1ccc(Nc2nc(-c3ccccc3)cs2)nc1,< 0.2 µg/mL
11,COCCNC(=O)C(=O)Nc1cc2c3c(c1)C(C)C(=O)N3CCC2 (centres undefined),48.7 µg/mL
12,CC(C)NCc1cc(Br)ccc1OCc1ccccc1.Cl,> 55.6 µg/mL
13,CC(CNC(=O)c1ccccc1Cl)NC(=O)c1ccccc1Cl (centres undefined),> 52.7 µg/mL
14,COc1ccc(Nc2nc(N)c([N+](=O)[O-])c(NCCO)n2)cc1,46.4 µg/mL
15,O=C(COC(=O)C1CC2CCCC(C1)C2=O)Nc1ccc(F)c(Cl)c1 (centres undefined),54.9 µg/mL
16,O=S(=O)(c1ccc(-c2ccon2)s1)N1CCCC1,11.5 µg/mL
17,COc1ccc(OC)c(Nc2nc(NCCC(C)C)nc(N)c2[N+](=O)[O-])c1,< 0.1 µg/mL
18,Cc1ccc(OCc2nc3ccccc3n2C)cc1,5.7 µg/mL
19,COc1cc(C(C)=O)ccc1OC(=O)N(C)c1ccccc1,44.2 µg/mL
